Experimental data taken from the supplement of paper PMC10307832.

Legend:
Experiment in all cases: relative viability (nuclei count vs DMSO), 5 days (fraction); higher = more cells survive
Bicalutamide + Dasatinib = compound: CC(O)(CS(=O)(=O)c1ccc(F)cc1)C(=O)Nc1ccc(C#N)c(C(F)(F)F)c1 [Bicalutamide] + Cc1nc(Nc2ncc(C(=O)Nc3c(C)cccc3Cl)s2)cc(N2CCN(CCO)CC2)n1 [Dasatinib] (partner 0.075 µM)
Outline: (§1)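 One day after seeding in 1536-well plates, lung cancer cell lines were dosed by pin tool. Dosing was either single-drug or a fixed anchor-drug dose plus five library-drug doses (not always all listed) in √10 steps. After 5 days, nuclei were stained in one fix-and-stain step and counted on 4× images, and relative viability is the nuclei count of treated wells over that of vehicle wells, given as the median of duplicate plates.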

[1] = compound: C(C(=O)C(=O)O)Br [Bromopyruvate] + Nc1ncn([C@H]2C[C@H](O)[C@@H](CO)O2)c(=O)n1 [Decitabine] (partner 2 µM)
Outline: as §1

[2] = compound: CC(O)(CS(=O)(=O)c1ccc(F)cc1)C(=O)Nc1ccc(C#N)c(C(F)(F)F)c1 [Bicalutamide] + CCNC(=O)c1noc(-c2cc(C(C)C)c(O)cc2O)c1-c1ccc(CN2CCOCC2)cc1 [Luminespib] (partner 0.01 µM)
Outline: as §1

[3] = compound: C(C(=O)C(=O)O)Br [Bromopyruvate] + CC(C)C[C@H](NC(=O)[C@H](Cc1ccccc1)NC(=O)c1cnccn1)B(O)O [Bortezomib] (partner 0.002 µM)
Outline: as §1

| Cell Line | relative viability (Bicalutamide + Dasatinib; first compound 0.08 µM) | relative viability (Bicalutamide + Dasatinib; first compound 0.253 µM) | relative viability (Bicalutamide + Dasatinib; first compound 0.8 µM) | relative viability (Bicalutamide + Dasatinib; first compound 2.53 µM) | relative viability ([1]; first compound 1 µM) | relative viability ([1]; first compound 3.162 µM) | relative viability ([1]; first compound 10 µM) | relative viability ([1]; first compound 31.62 µM) | relative viability ([1]; first compound 100 µM) | relative viability ([2]; first compound 0.08 µM) | relative viability ([2]; first compound 0.253 µM) | relative viability ([2]; first compound 0.8 µM) | relative viability ([2]; first compound 2.53 µM) | relative viability ([3]; first compound 1 µM) | relative viability ([3]; first compound 3.162 µM) | relative viability ([3]; first compound 10 µM) | relative viability ([3]; first compound 31.62 µM) | relative viability ([3]; first compound 100 µM) |
| --- | --- | --- | --- | --- | --- | --- | --- | --- | --- | --- | --- | --- | --- | --- | --- | --- | --- | --- |
| NCI-H1437 | 0.412 | 0.406 | 0.466 | 0.447 | 0.672 | 0.588 | 0.524 | 0.583 | 0.577 | 1.17 | 1.15 | 1.1 | 1.05 | 0.546 | 0.458 | 0.485 | 0.405 | 0.626 |
| NCI-H1650 | 0.34 | 0.245 | 0.381 | 0.301 | 0.448 | 0.393 | 0.462 | 0.454 | 0.266 | 0.181 | 0.165 | 0.171 | 0.196 | 0.196 | 0.194 | 0.209 | 0.255 | 0.19 |
| NCI-H1651 | 0.449 | 0.322 | 0.471 | 0.451 | 0.604 | 0.587 | 0.709 | 0.548 | 0.588 | 0.767 | 0.67 | 0.918 | 0.874 | 0.922 | 0.952 | 1.04 | 0.822 | 0.867 |
| NCI-H1666 | 0.915 | 0.789 | 0.767 | 0.731 | 0.679 | 0.738 | 0.835 | 0.66 | 0.705 | 1.04 | 0.989 | 1.03 | 0.961 | 0.804 | 0.847 | 0.638 | 0.89 | 0.819 |
| NCI-H1734 | 0.454 | 0.4 | 0.561 | 0.367 | 0.505 | 0.507 | 0.629 | 0.502 | 0.457 | 0.193 | 0.174 | 0.212 | 0.186 | 0.984 | 0.89 | 1.11 | 0.97 | 1.09 |
| NCI-H1755 | 0.397 | 0.382 | 0.446 | 0.351 | 0.793 | 0.684 | 0.721 | 0.672 | 0.659 | 0.475 | 0.58 | 0.435 | 0.292 | 0.967 | 0.938 | 0.994 | 1.01 | 1.03 |
| NCI-H1792 | 0.84 | 0.509 | 1.06 | 0.856 | 0.57 | 0.614 | 0.45 | 0.498 | 0.555 | 0.411 | – | 0.571 | 0.236 | 1.01 | 0.932 | 1.11 | 0.879 | 0.915 |
| NCI-H1915 | 0.317 | 0.29 | 0.301 | 0.252 | 0.258 | 0.273 | 0.268 | 0.249 | 0.271 | 0.761 | 0.69 | 0.934 | 0.762 | 1 | 1.02 | 1.01 | 0.929 | 0.975 |
| NCI-H1975 | 0.396 | 0.376 | 0.462 | 0.334 | 0.396 | 0.402 | 0.341 | 0.394 | 0.413 | 0.294 | 0.23 | 0.33 | 0.177 | 0.423 | 0.431 | 0.475 | 0.405 | 0.5 |
